Laboratory results taken from patent publication US5015639A, “Substituted benzazepines, their preparation and pharmaceutical compositions containing them” (Schering Corporation, priority 1989, dated 1991).
Like-named read-outs stand apart in the source and are kept apart here.

Tests used:
[1] = molecular target: T1, dopamine D-1 receptor (Rattus norvegicus, UniProt P18901); assay: Competitive inhibition assay vs. 3H-SCH 23390 (dopamine D-1 receptor binding); set-up: species or system Male Sprague-Dawley rat (striatal tissue)
T1 construct: Striatal tissue was excised, pooled, and homogenized; tissue Charles River Breeding Laboratories, Mass; (animals); host or cells: striatum of male Sprague-Dawley rats, washed membrane pellet
Description: (§1) Many compounds capable of effecting reproducible physiological changes in neural tissues are believed to operate by binding at one or more receptor sites.
(§2) Tritiated SCH 23390 and tritiated spiperone (a potent D-2 ligand) were obtained as described in the Billard et al. reference supra and serially diluted in 0.05 M Tris buffer, pH 7.4, as required. A compound of the invention is diluted in 0.05 M Tris buffer, pH 7.4, as required.
(§3) Male Sprague-Dawley rats (200 to 250 g) from Charles River Breeding Laboratories, Mass. were used to obtain brain tissue. The rats were humanely sacrificed and their brains removed and placed on ice. Striatal tissue was excised, pooled, and homogenized (Brinkman Polytron, 10 sec) in 100 volumes (w/v) of ice cold 50 mM Tris buffer, pH 7.4 (at 25° C.). The homogenate was centrifuged at 20,000 xg for 10 min. The resultant pellet was rehomogenized in Tris buffer and centrifuged again. The final pellet was resuspended in 50 mM Tris buffer pH 7.4 containing 120 mM NaCl, 5 mM KCl, 2 mM CaCl2, and 1 mM MgCl2.
(§4) Polypropylene incubation tubes received 100 μl of the individual test compounds at various concentrations dissolved or suspended in 0.05 M Tris, pH 7.4 containing 4 mg/ml methylcellulose, 100 μl of a solution of ^3 H-SCH 23390 in Tris buffer (final reaction mixture concentration =0.3 nM) or 100 μl of a solution of 3H-spiperone in Tris buffer (final concentration =0.2 nM) and 800 μl of tissue suspension (ca. 3 mg/assay). Tubes were incubated at 37° C. for 15 minutes and rapidly vacuum filtered through Whatman GF/B filters and rinsed 4 times with 4 ml of ice cold 50 mM Tris buffer, pH 7.4. The filters were transferred to scintillation vials, equilibated with 10 ml of scintillant (Scintosol, Isolab, Inc.) for 16 hours at 25° C. and the radioactivity determined in a liquid scintillation counter. Ki values were determined as described by Billard et al. using the relationship Ki =IC50 /(1+([L]/KD)) wherein IC50 =concentration of test drug necessary to displace 50% of specifically bound ^3 H-Sch 23390, [L]=concentration of radioligand used in the assay, and KD =dissociation constant.

[2] = molecular target: T2, D-2 receptor (Rattus norvegicus, UniProt P61169); assay: Competitive inhibition assay vs. 3H-spiperone (D-2 receptor binding); set-up: species or system Male Sprague-Dawley rat (striatal tissue); conditions: rat striatal homogenate, 0.2 nM 3H-spiperone, pH 7.4, 37° C., 15 min
T2 construct: Striatal tissue was excised, pooled, and homogenized; tissue Charles River Breeding Laboratories, Mass; (animals); host or cells: striatum of male Sprague-Dawley rats, washed membrane pellet
Description: as §1, §2, §3, §4

[3] = tested on: conditioned avoidance response (CAR); assay: Conditioned avoidance suppression in rats (Rat CAR); assay type: in vivo; conditions: lowest dose that significantly (P<0.05) reduced avoidance responding, read-out: Rat CAR, minimal effective dose (MED)
Description: N. Y. Acad. Sci. 66, 740 (1957)}. A series of experiments was carried out to assess the ability of the compounds of this invention to suppress the conditioned avoidance response (CAR) in rats.
Rats were required to jump onto a platform located 6.75 inches (17.15 cm) above the grid floor of an experimental chamber in response to a 5-second tone to avoid a 10-second foot shock (0.6 ma). Each experimental session consisted of 20 such trials presented at 30-second intervals. A correct CAR is scored whenever the rat jumps onto the platform during the tone (prior to foot shock). An escape response is scored when the rat jumps onto the platform during a shock. A response failure is defined as the lack of an escape response during the 10-second shock period.
Groups of 6-8 rats were trained in two consecutive days (total of 40 trials). Rats that reached criterion on day 2 (correct CARs on 16 or more of the 20 trials) were treated with either a test drug or vehicle on day 3. Suppression of CAR was analyzed statistically using Student's t-test comparing the performances of drug-treated to vehicle-treated rats.

[4] = rat striatal homogenate, 0.3 nM 3H-SCH 23390, pH 7.4, 37° C., 15 min, read-out: Ki vs. 3H-SCH 23390

T2 sequence (P61169 whole entry): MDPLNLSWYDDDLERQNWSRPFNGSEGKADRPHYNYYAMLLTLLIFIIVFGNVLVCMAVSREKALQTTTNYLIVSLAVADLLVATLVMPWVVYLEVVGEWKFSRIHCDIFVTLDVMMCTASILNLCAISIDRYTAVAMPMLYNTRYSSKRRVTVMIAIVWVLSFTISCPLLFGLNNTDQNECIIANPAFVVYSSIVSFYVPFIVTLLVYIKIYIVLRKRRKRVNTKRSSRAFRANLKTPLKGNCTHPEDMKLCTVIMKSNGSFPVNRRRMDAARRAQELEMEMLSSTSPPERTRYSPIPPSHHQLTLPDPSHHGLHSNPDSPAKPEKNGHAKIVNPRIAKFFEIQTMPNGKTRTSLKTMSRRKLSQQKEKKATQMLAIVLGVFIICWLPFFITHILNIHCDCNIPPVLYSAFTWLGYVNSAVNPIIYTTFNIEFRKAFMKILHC
T1 sequence (P18901 whole entry): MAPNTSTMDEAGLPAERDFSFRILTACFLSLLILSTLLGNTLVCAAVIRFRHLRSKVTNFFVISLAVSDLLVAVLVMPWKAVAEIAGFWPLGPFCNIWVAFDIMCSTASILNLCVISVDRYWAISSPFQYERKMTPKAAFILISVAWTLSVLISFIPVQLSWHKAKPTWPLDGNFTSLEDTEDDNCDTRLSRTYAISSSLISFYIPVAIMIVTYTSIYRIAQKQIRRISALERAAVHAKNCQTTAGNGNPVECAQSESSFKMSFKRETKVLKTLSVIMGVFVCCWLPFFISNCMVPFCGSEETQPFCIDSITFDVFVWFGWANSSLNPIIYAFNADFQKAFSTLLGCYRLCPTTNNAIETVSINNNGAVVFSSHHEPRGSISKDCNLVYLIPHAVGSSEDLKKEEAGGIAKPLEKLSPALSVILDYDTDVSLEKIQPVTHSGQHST

Ki [1, 4] | Ki [2] | Structure (SMILES) | minimal effective dose ([3]; sc) | minimal effective dose ([3]; po) | Ki [1]
0.008 µM | 1.02 µM | CN1CCc2cc(Cl)c(O)cc2C(OCCc2ccccc2)C1 (centres unmarked) [Compound 11, 8-chloro-5-(phenethyloxy)-3-methyl-2,3,4,5-tetrahydro-lH-3-benzazepine-7-ol] | 1 mg/kg | > 30 mg/kg | –
1.1 µM | > 100 µM | CN(C)CCCC1CN(C)CCc2cc(Cl)c(O)cc21 (centres unmarked) [HO CH3 (CH2)3 N(CH3)2 H, 8-chloro-5-(N,N-dimethylaminopropyl)-3-methyl-2,3,4,5-tetrahydro-lH-3-benzazepine-7-ol] | – | – | –
0.011 µM | 16.1 µM | CN1CCc2cc(Cl)c(O)cc2C(n2cccc2)C1 (centres unmarked) [Compound 13, 8-chloro-5-(1-pyrrolyl)-3-methyl-2,3,4,5-tetrahydro-lH-3-benzazepine-7-ol] | 0.3 mg/kg | > 30 mg/kg | –
0.03 µM | 2.3 µM | CN1CCc2cc(Cl)c(O)cc2C(OCc2ccccc2)C1 (centres unmarked) [Compound 10, 8-chloro-5-benzyloxy-3-methyl-2,3,4,5-tetrahydro-lH-3-benzazepine-7-ol] | 3 mg/kg | > 30 mg/kg | –
0.033 µM | 2.61 µM | CCSC1CN(C)CCc2cc(Cl)c(O)cc21 (centres unmarked) [HO CH3 SC2 H5 H, 8-chloro-5-ethylthio-3-methyl-2,3,4,5-tetrahydro-lH-3-benzazepine-7-ol] | – | – | –
0.006 µM | 0.17 µM | C=CCC1CN(C)CCc2cc(Cl)c(O)cc21 (centres unmarked) [Compound 14, 8-chloro-5-allyl-3-methyl-2,3,4,5-tetrahydro-lH-3-benzazepine-7-ol] | 0.1 mg/kg | > 30 mg/kg | –
0.133 µM | 3.33 µM | CCOC(=O)Oc1cc2c(cc1Cl)CCN(C)CC2C1CCCCC1 (centres unmarked) [Compound 16, 8-chloro-7-(ethoxy-formyloxy)-5-cyclohexyl-3-methyl-2,3,4,5-tetrahydro-lH-3-benzazepine] | < 3 mg/kg | > 30 mg/kg | –
0.24 µM | 2.62 µM | C=CCC1CN(C)CCc2cc(Cl)c(OCOC(=O)C(C)(C)C)cc21 (centres unmarked) [Compound 20, 8-chloro-7-(t-butyryloxy-methoxy)-5-allyl-3-methyl-2,3,4,5-tetrahydro-lH-3-benzazepine] | 0.1 mg/kg | > 30 mg/kg | –
0.084 µM | 3.45 µM | C=CCC1CN(C)CCc2cc(Cl)c(OC(=O)C(C)C)cc21 (centres unmarked) [Compound 17, 8-chloro-7-(isopropyl-formyloxy)-5-allyl-3-methyl-2,3,4,5-tetrahydro-lH-3-benzazepine] | 0.3 mg/kg | > 30 mg/kg | –
0.038 µM | 10.1 µM | CN1CCc2cc(Cl)c(O)cc2C(OC2CCCCC2)C1 (centres unmarked) [HO CH3 cyclohexyloxy H, 8-chloro-5-cyclohexyloxy-3-methyl-2,3,4,5-tetrahydro-lH-3-benzazepine-7-ol] | – | – | –
0.021 µM | 1.54 µM | CN1CCc2cc(Cl)c(O)cc2C(C2CCCC2)C1 (centres unmarked) [Compound 12] | 1 mg/kg | > 30 mg/kg | –
0.0011 µM | 0.135 µM | CN1CCc2cc(Cl)c(O)cc2C(C2C=CCCC2)C1 (centres unmarked) [HO CH3 2-cyclohexenyl H, 8-chloro-5-(2-cyclohexenyl)-3-methyl-2,3,4,5-tetrahydro-lH-3-benzazepine-7-ol] | – | – | –
0.073 µM | 0.705 µM | CN1CCc2cc(Cl)c(O)cc2C(=Cc2ccccc2)C1 [HO CH3 CHPh] | – | – | –

Continued, compound first:

Structure (SMILES) | Ki [1, 4] | Ki [2] | minimal effective dose ([3]; sc) | minimal effective dose ([3]; po) | Ki [1]
CCSC1CNCCc2cc(Cl)c(O)cc21 (centres unmarked) [Compound 3] | 0.38 µM | 6.5 µM | < 10 mg/kg | – | –
COC1CN(C)CCc2cc(Cl)c(O)cc21 (centres unmarked) [Compound 1, 8-chloro-5-methoxy-3-methyl-2,3,4,5-tetrahydro-lH-3-benzazepine-7-ol] | – | 5.6 µM | 1 mg/kg | > 30 mg/kg | 0.054 µM
CN1CCc2cc(Cl)c(O)cc2C(n2ccnc2)C1 (centres unmarked) [Compound 7] | – | – | > 10 mg/kg | > 30 mg/kg | –
CCOC1CN(C)CCc2cc(Cl)c(O)cc21 (centres unmarked) [Compound 2, 8-chloro-5-ethoxy-3-methyl-2,3,4,5-tetrahydro-lH-3-benzazepine-7-ol] | – | 7.72 µM | 1 mg/kg | > 30 mg/kg | 0.034 µM
CN1CCc2cc(Cl)c(O)cc2C(OCC(F)(F)F)C1 (centres unmarked) [Compound 9, 8-chloro-5-(2,2,2-trifluoroethoxy)-3-methyl-2,3,4,5-tetrahydro-lH-3-benzazepine-7-ol] | 0.059 µM | 14.9 µM | 1 mg/kg | > 30 mg/kg | –
CC(=O)Oc1cc2c(cc1Cl)CCN(C)CC2CC=C(C)C (centres unmarked) [Compound 19, 8-chloro-7-acetoxy-5-(3-methyl-2-butenyl)-3-methyl-2,3,4,5-tetrahydro-lH-3-benzazepine] | 0.017 µM | 0.955 µM | < 1 mg/kg | > 30 mg/kg | –
CN1CCc2cc(Cl)c(O)cc2C(Sc2ccccc2)C1 (centres unmarked) [Compound 5, 8-chloro-3-methyl-5-phenylthio-2,3,4,5-tetrahydro-lH-3-benzazepin-7-ol] | 0.033 µM | 0.402 µM | > 30 mg/kg | > 30 mg/kg | –
CN1CCc2cc(Cl)c(O)cc2C2(CCCC2)C1 [Compound 15, 8-chloro-7-hydroxy-3-methyl-2,3,4,5-tetrahydrospiro[lH-3-benzazepine-5,5'-cyclopentane]] | – | 0.86 µM | 1 mg/kg | > 30 mg/kg | 0.019 µM
CN1CCc2cc(Cl)c(O)cc2C(N2CCCCC2)C1 (centres unmarked) [Compound 6, 8-chloro-3-methyl-5-(1-piperidinyl)-2,3,4,5-tetrahydro-lH-3-benzazepine-7-ol] | 0.064 µM | 7.5 µM | 3 mg/kg | 30 mg/kg | –
CN1CCc2cc(Cl)c(O)cc2C(C2CCCCC2)C1 (centres unmarked) [Compound 8, 8-chloro-5-cyclohexyl-3-methyl-2,3,4,5-tetrahydro-lH-3-benzazepine-7-ol] | 0.01 µM | 0.57 µM | ≤ 1 mg/kg | 30 mg/kg | –
CN1CCc2cc(Cl)c(O)cc2C(Oc2ccccc2)C1 (centres unmarked) [Compound 4, 8-chloro-3-methyl-5-phenoxy-2,3,4,5-tetrahydro-lH-3-benzazepin-7-ol] | 0.083 µM | 0.61 µM | – | 10 mg/kg | –
C=CCC1CN(C)CCc2cc(Cl)c(OC(=O)COC)cc21 (centres unmarked) [Compound 18, 8-chloro-7-(methoxy-acetoxy)-5-allyl-3-methyl-2,3,4,5-tetrahydro-lH-3-benzazepine] | 0.0103 µM | 0.566 µM | < 0.3 mg/kg | 100 mg/kg | –
